The first assay relates to human C-Myc transcription in MV-4-11 cells. Briefly: Transcription of human C-Myc in human leukemic MV-4-11 cells (QuantiGene 2.0). The format is cell-based. As to conditions: Homo sapiens, MV4-11, 4 h, inhibition of C-Myc mRNA, 4 hours treatment, read-out: IC50 MV-4-11 Cell. The procedure:
The effect of compounds on transcription of human C-Myc gene is monitored in human B-myelomonocytic leukemia cell line MV-4-11 (from American Type Culture Collection (ATCC), Manassas, Va., USA) using QuantiGene 2.0 assay kit (Affymetrix, Santa Clara, Calif., USA).
Typically, 8,000 MV-4-11 cells are plated in sterile 96-well plates (Costar #3598 from Fisher Scientific Canada, Ottawa, Ontario, Canada) in Iscove's medium supplemented with 10% fetal bovine serum, glutamine (2 mM), and penicillin (100 I.U.) and streptomycin (100 μg/mL) (all from Wisent Inc., St. Bruno, Quebec, Canada). Compounds are dissolved in DMSO at 30 mM. A series of 1:3 dilutions are first made in DMSO, and further 1:100 dilutions are made in serum-containing cell culture media. The final concentration of DMSO is 0.1% in cell culture media. After cells are treated with various concentrations of test compound for 4 hours, cells are lysed using Quantigene 2.0 sample processing kit (# QS0100). C-Myc mRNA is detected using a QuantiGene 2.0 assay kit (# QS0009) with gene-specific probe to human C-Myc (# SA-50182) following the manufacturer's recommendations. Luminescene signals are read on Flexstation II microplate reader (Molecular Devices, Sunnyvale, Calif., USA).
What is called IC50 is the concentration at which inhibition is half-maximal. Regarding `Cc1cc(-c2ccc3nc([C@H]4CCCO4)n(CCOC(F)(F)F)c3c2)cn(C)c1=O` (stereo in doubt) [Compound 30a, 1,3-dimethyl-5-[2-tetrahydrofuran-2-yl-3-[2-(trifluoromethoxy)ethyl]benzimidazol-5-yl]pyridin-2-one], the IC50 was found to be 0.2 µM.

As to `Cc1cc(-c2ccc3nc([C@@H]4CCCO4)n(CCOC(F)(F)F)c3c2)cn(C)c1=O` (stereo in doubt) [Compound 30b, 1,3-dimethyl-5-[2-tetrahydrofuran-2-yl-3-[2-(trifluoromethoxy)ethyl]benzimidazol-5-yl]pyridin-2-one], the half-maximal inhibitory concentration (IC50) is 0.087 µM.

As to `CCc1cc(-c2ccc3nc(C4CC4)n(CCOC(F)(F)F)c3c2)cn(C)c1=O` [Compound 14, 5-(2 cyclopropyl-3-(2-(trifluoromethoxy)ethyl)benzimidazol-5-yl)-3-ethyl-1-methylpyridin-2-one], the IC50 came out at 0.25 µM.

Consider `COC[C@H](C)n1c(C2CC2)nc2ccc(-c3cc(C)c(=O)n(C)c3)cc21` [Compound 17, 5-[2-cyclopropyl-3-[(1S)-2-methoxy-1-methylethyl]benzimidazol-5-yl]-1,3-dimethyl pyridin-2-one], for which the IC50 stood at 0.81 µM.

`COC[C@H](C)n1c(C2CCOCC2)nc2ccc(-c3cc(C)c(=O)n(C)c3)cc21` [Compound 18, 5-[3-[(1S)-2-methoxy-1-methylethyl]-2-tetrahydropyran-4-yl-benzimidazol-5-yl]-1,3-dimethylpyridin-2-one]: the half-inhibitory concentration (IC50) worked out at 0.17 µM.

As to `Cn1cc(-c2ccc3nc(C4CC4)n(CCOC(F)(F)F)c3c2)cc(C2CC2)c1=O` [Compound 19, 3-cyclopropyl-5-[2-cyclopropyl-3-[2-(trifluoromethoxy)ethyl]benzimidazol-5-yl]-1-methylpyridin-2-one], the 50% inhibitory concentration (IC50) was 0.87 µM.

Turning to `CNc1cc(-c2ccc3nc(C4CC4)n(CCOC(F)(F)F)c3c2)cn(C)c1=O` [Compound 20, 5-[2-cyclopropyl-3-[2-(trifluoromethoxy)ethyl]benzimidazol-5-yl]-1-methyl-3-(methylamino)pyridin-2-one], the IC50 is 0.24 µM.

Take `COC(C)Cn1c(C)nc2ccc(-c3cc(C)c(=O)n(C)c3)cc21` (centres unmarked) [Compound 21a, 5-[3-(2-methoxypropyl)-2-methylbenzimidazol-5-yl]-1,3-dimethylpyridin-2-one]: the IC50 amounted to 0.51 µM.

As to `COC(C)Cn1cnc2ccc(-c3cc(C)c(=O)n(C)c3)cc21` (centres unmarked) [Compound 22a, 5-[3-(2-methoxypropyl)benzimidazol-5-yl]-1,3-dimethylpyridin-2-one], the IC50 was determined as 0.84 µM.

In the case of `COC[C@@H](C)n1c(C(F)(F)F)nc2ccc(-c3cc(C)c(=O)n(C)c3)cc21` [Compound 26, 5-[3-[(1R)-2-methoxy-1-methyl-ethyl]-2-(trifluoromethyl)benzimidazol-5-yl]-1,3-dimethylpyridin-2-one], the IC50 was 0.23 µM.

`Cc1cc(-c2ccc3nc(C4CC(F)(F)C4)n(CCOC(F)(F)F)c3c2)cn(C)c1=O` [Compound 27, 5-[2-(3,3-difluorocyclobutyl)-3-[2-(trifluoromethoxy)ethyl]benzimidazol-5-yl]-1,3-dimethylpyridin-2-one]: the IC50 came to 0.092 µM.

Regarding `CO[C@H]1C[C@H](c2nc3ccc(-c4cc(C)c(=O)n(C)c4)cc3n2CCOC(F)(F)F)C1` [Compound 28a], the concentration for half-maximal inhibition (IC50) is 0.05 µM.

For `CO[C@H]1C[C@@H](c2nc3ccc(-c4cc(C)c(=O)n(C)c4)cc3n2CCOC(F)(F)F)C1` [Compound 28b], the IC50 was 0.05 µM.

`Cc1cc(-c2ccc3nc(C4(C)CCOCC4)n(CCOC(F)(F)F)c3c2)cn(C)c1=O` [Compound 31, 1,3-dimethyl-5-(2-(4-methyltetrahydro-2H-pyran-4-yl)-1-(2-(trifluoromethoxy)ethyl)-1H-benzo[d]imidazol-6-yl)pyridin-2(1H)-one]: the IC50 was 0.024 µM.

For `Cc1cc(-c2ccc3nc(C4CCOCC4)n(CCC(F)(F)F)c3c2)cn(C)c1=O` [Compound 34, 1,3-dimethyl-5-[2-tetrahydropyran-4-yl-3-(3,3,3-trifluoropropyl)benzimidazol-5-yl]pyridin-2-one], the IC50 was 0.22 µM.

For the compound `Cn1cc(-c2ccc3nc(C4CCOCC4)n(CCOC(F)(F)F)c3c2)cc(Cl)c1=O` [Compound 36, 3-chloro-1-methyl-5-[2-tetrahydropyran-4-yl-3-[2-(trifluoromethoxy)ethyl]benzimidazol-5-yl]pyridin-2-one], the IC50 turned out to be 0.053 µM.

Take `COCCn1c(Cc2ccccc2)nc2ccc(-c3cc(C)c(=O)n(C)c3)cc21` [Compound 37, 5-(2-benzyl-1-(2-methoxyethyl)-1H-benzo[d]imidazol-6-yl)-1,3-dimethylpyridin-2(1H)-one]: the 50% inhibitory concentration (IC50) was 0.49 µM.

In the case of `COCCn1c(C2CCCCC2)nc2ccc(-c3cc(C)c(=O)n(C)c3)cc21` [Compound 38, 5-(2-cyclohexyl-1-(2-methoxyethyl)-1H-benzo[d]imidazol-6-yl)-1,3-dimethylpyridin-2(1H)-one], the concentration for half-maximal inhibition (IC50) came to 0.24 µM.

With `CCO[C@H](C)Cn1c(C2CCOCC2)nc2ccc(-c3cc(C)c(=O)n(C)c3)cc21` [Compound 39, (R)-5-(1-(2-ethoxypropyl)-2-(tetrahydro-2H-pyran-4-yl)-1H-benzo[d]imidazol-6-yl)-1,3-dimethylpyridin-2(1H)-one], the IC50 worked out at 0.084 µM.

Consider `CCO[C@@H](C)Cn1c(C2CCOCC2)nc2ccc(-c3cc(C)c(=O)n(C)c3)cc21` [Compound 40, (S)-5-(1-(2-ethoxypropyl)-2-(tetrahydro-2H-pyran-4-yl)-1H-benzo[d]imidazol-6-yl)-1,3-dimethylpyridin-2(1H)-one], for which the concentration for half-maximal inhibition (IC50) turned out to be 0.027 µM.

For `Cc1cc(-c2ccc3nc(C4CCOCC4)n(CCOCC(F)(F)F)c3c2)cn(C)c1=O` [Compound 41, 1,3-dimethyl-5-(2-(tetrahydro-2H-pyran-4-yl)-1-(2-(2,2,2-trifluoroethoxy)ethyl)-1H-benzo[d]imidazol-6-yl)pyridin-2(1H)-one], the IC50 turned out to be 0.023 µM.

For `COCCn1c(CC2CCOCC2)nc2ccc(-c3cc(C)c(=O)n(C)c3)cc21` [Compound 42, 5-(1-(2-methoxyethyl)-2-((tetrahydro-2H-pyran-4-yl)methyl)-1H-benzo[d]imidazol-6-yl)-1,3-dimethylpyridin-2(1H)-one], the concentration for half-maximal inhibition (IC50) came to 0.17 µM.

`Cc1cc(-c2ccc3nc(CC4CCOCC4)n(CCOC(F)(F)F)c3c2)cn(C)c1=O` [Compound 43, 1,3-dimethyl-5-(2-((tetrahydro-2H-pyran-4-yl)methyl)-1-(2-(trifluoromethoxy)ethyl)-1H-benzo[d]imidazol-6-yl)pyridin-2(1H)-one]: the IC50 was 0.027 µM.

The assay is the same for the next values; noted with them: inhibition of C-Myc mRNA, 4 hours treatment, read-out: IC50 MV-4-11 Cell.
With “5-[2-(3-methoxycyclobutyl)-1-(2-(2,2,2-trifluoroethoxy)ethyl)-1H-benzo[d]imidazol-6-yl]-1,3-dimethylpyridin-2(1H)-one [Compound 63]”, the IC50 worked out at 0.017 µM.

On to `COC(C)Cn1c(C2CC2)nc2ccc(-c3cc(C)c(=O)n(C)c3)cc21` (single isomer, unassigned) [Compound 23a, 5-[2-cyclopropyl-3-(2-methoxypropyl)benzimidazol-5-yl]-1,3-dimethylpyridin-2-one], for which the concentration for half-maximal inhibition (IC50) is 0.25 µM.

Regarding `COC(C)Cn1c(C2CC2)nc2ccc(-c3cc(C)c(=O)n(C)c3)cc21` (single isomer, unassigned) [Compound 23b, 5-[2-cyclopropyl-3-(2-methoxypropyl)benzimidazol-5-yl]-1,3-dimethylpyridin-2-one], the IC50 amounted to 0.73 µM.

With `Cc1cc(-c2ccc3nc(C4CCOC4)n(CCOC(F)(F)F)c3c2)cn(C)c1=O` (single isomer, unassigned) [Compound 29a, 1,3-dimethyl-5-[2-tetrahydrofuran-3-yl-3-[2-(trifluoromethoxy)ethyl]benzimidazol-5-yl]pyridin-2-one], the half-maximal inhibitory concentration (IC50) turned out to be 0.22 µM.

For `Cc1cc(-c2ccc3nc(C4CCOC4)n(CCOC(F)(F)F)c3c2)cn(C)c1=O` (single isomer, unassigned) [Compound 29b, 1,3-dimethyl-5-[2-tetrahydrofuran-3-yl-3-[2-(trifluoromethoxy)ethyl]benzimidazol-5-yl]pyridin-2-one], the IC50 stood at 0.077 µM.

As to `COC(C)Cn1c(C2CCOCC2)nc2ccc(-c3cc(C)c(=O)n(C)c3)cc21` (single isomer, unassigned) [Compound 35a, 5-[3-(2-methoxypropyl)-2-tetrahydropyran-4-yl-benzimidazol-5-yl]-1,3-dimethyl pyridin-2-one], the half-inhibitory concentration (IC50) was 0.18 µM.

For the compound `COC(C)Cn1c(C2CCOCC2)nc2ccc(-c3cc(C)c(=O)n(C)c3)cc21` (single isomer, unassigned) [Compound 35b, 5-[3-(2-methoxypropyl)-2-tetrahydropyran-4-yl-benzimidazol-5-yl]-1,3-dimethyl pyridin-2-one], the IC50 is 0.086 µM.

With `COC(C)Cn1c(C)nc2ccc(-c3cc(C)c(=O)n(C)c3)cc21` (centres unmarked) [Compound 21b, 5-[3-(2-methoxypropyl)-2-methylbenzimidazol-5-yl]-1,3-dimethylpyridin-2-one], the concentration for half-maximal inhibition (IC50) is 0.59 µM.

As to `COC(C)Cn1cnc2ccc(-c3cc(C)c(=O)n(C)c3)cc21` (centres unmarked) [Compound 22b, 5-[3-(2-methoxypropyl)benzimidazol-5-yl]-1,3-dimethylpyridin-2-one], the 50% inhibitory concentration (IC50) stood at 0.78 µM.

The values are drawn from patent publication US10703740B2, “Substituted benzimidazoles, their preparation and their use as pharmaceuticals” (NEOMED Institute, priority 2015, dated 2020).
